Data as given in patent US20150344540A1, “NOVEL GLP-1 RECEPTOR AGONISTS WITH CHOLESTEROL EFFLUX ACTIVITY” (NOVO NORDISK A/S, priority 2012, published 2015).
Where two headings read alike, the source gives them in different places. Where a SMILES comes first, the peptide text is derived from it. [ ]: non-standard residue; d: D form. Aib = CC(C)(N)C(=O)O

Experiments:
[1] = tested on: Mouse monocyte/macrophage cell line, RAW 264.7; assay: Cholesterol efflux assay (3H-cholesterol, macrophage cell line); format: cell-based; settings: RAW 264.7, 4 hrs incubation, 0.1% human serum albumin; for 4 h Cholesterol Efflux Emax: ABCA1-mediated efflux
[2] = molecular target: human GLP-1 receptor (Homo sapiens, UniProt P43220); assay: Functional GLP-1 receptor assay, in vitro potency (CRE luciferase; whole cells); format: cell-based; settings: BHK cells expressing human GLP-1 receptor
Sequence of human GLP-1 receptor (P43220 24-463): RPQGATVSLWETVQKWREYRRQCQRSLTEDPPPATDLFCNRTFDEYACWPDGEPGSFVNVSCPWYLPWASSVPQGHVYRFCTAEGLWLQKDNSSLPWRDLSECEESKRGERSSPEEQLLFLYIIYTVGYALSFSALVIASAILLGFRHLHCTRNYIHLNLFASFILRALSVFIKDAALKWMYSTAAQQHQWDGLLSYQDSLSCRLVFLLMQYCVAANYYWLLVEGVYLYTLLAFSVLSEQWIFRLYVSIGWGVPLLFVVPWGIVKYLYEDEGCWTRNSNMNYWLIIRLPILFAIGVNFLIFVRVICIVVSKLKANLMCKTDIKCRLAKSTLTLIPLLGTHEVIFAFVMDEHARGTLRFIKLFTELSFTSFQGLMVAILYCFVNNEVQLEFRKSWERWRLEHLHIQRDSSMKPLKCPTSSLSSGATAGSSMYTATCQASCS

[3] = GLP1R CRE luc 1% HSA EC50 Mean Value, 1% HSA
[4] = 0% HSA, read-out: GLP1R CRE luc 0% HSA EC50 Mean Value

CC[C@H](C)[C@H](NC(=O)[C@H](Cc1ccccc1)NC(=O)[C@H](CCC(=O)O)NC(=O)[C@H](CCCCN)NC(=O)[C@H](C)NC(=O)[C@H](C)NC(=O)[C@H](CCC(N)=O)NC(=O)[C@H](CCC(=O)O)NC(=O)[C@H](CCC(=O)O)NC(=O)[C@H](CC(C)C)NC(=O)[C@H](Cc1ccc(O)cc1)NC(=O)[C@H](CCCCN)NC(=O)[C@H](CO)NC(=O)[C@H](Cc1ccc(O)cc1)NC(=O)[C@H](CC(=O)O)NC(=O)[C@H](CO)NC(=O)[C@@H](NC(=O)[C@H](Cc1ccccc1)NC(=O)[C@@H](NC(=O)CNC(=O)[C@H](CCC(N)=O)NC(=O)[C@H](CO)NC(=O)[C@@H](N)Cc1c[nH]cn1)[C@@H](C)O)[C@@H](C)O)C(=O)N[C@@H](C)C(=O)N[C@@H](Cc1c[nH]c2ccccc12)C(=O)N[C@@H](CC(C)C)C(=O)N[C@@H](CC(C)C)C(=O)N[C@@H](CCC(=O)O)C(=O)N[C@@H](CCCCN)C(=O)NC(C)(C)C(=O)N[C@@H](CCCCN)C(=O)N[C@@H](CCC(=O)O)C(=O)N[C@@H](Cc1ccccc1)C(=O)N[C@@H](CC(C)C)C(N)=O [Compound 56] (H-HSQGTFTSDYSKYLEEQAAKEFIAWLLEK[Aib]KEFL-NH2; N-terminus assumed)
EC50 ([1]; read-out: 4 h Cholesterol Efflux EC50, ABCA1-mediated efflux (CPT-cAMP induced minus non-induced)): 210 nM | EC50 ([2]; GLP1R CRE luc 0% HSA EC50 Mean Value, 0% HSA): 0.118 nM | EC50 [2, 3]: 0.061 nM

CC[C@H](C)[C@H](NC(=O)[C@H](Cc1ccccc1)NC(=O)[C@H](CCC(=O)O)NC(=O)[C@H](CCCCN)NC(=O)[C@@H](NC(=O)[C@H](C)NC(=O)[C@H](CCC(=O)O)NC(=O)CNC(=O)[C@H](CCC(=O)O)NC(=O)[C@H](CC(C)C)NC(=O)[C@H](Cc1ccc(O)cc1)NC(=O)[C@H](CO)NC(=O)[C@H](CO)NC(=O)[C@@H](NC(=O)[C@H](CC(=O)O)NC(=O)[C@H](CO)NC(=O)[C@@H](NC(=O)[C@H](Cc1ccccc1)NC(=O)[C@@H](NC(=O)CNC(=O)[C@H](CCC(=O)O)NC(=O)C(C)(C)NC(=O)[C@@H](N)Cc1c[nH]cn1)[C@@H](C)O)[C@@H](C)O)C(C)C)C(C)C)C(=O)N[C@@H](C)C(=O)N[C@@H](Cc1c[nH]c2ccccc12)C(=O)N[C@@H](CC(C)C)C(=O)N[C@H](C(=O)N[C@@H](CCC(=O)O)C(=O)N[C@@H](CCCCN)C(=O)N[C@@H](Cc1ccccc1)C(=O)N[C@@H](CCCCN)C(=O)N[C@@H](CCC(=O)O)C(=O)N[C@@H](C)C(=O)N[C@@H](Cc1ccccc1)C(N)=O)C(C)C [Compound 46, [Aib8,Glu23,Val25,Glu34,Lys35,Phe36,Lys37]-GLP-1-(7-37)-peptidyl-Glu-Ala-Phe amide] (H-H[Aib]EGTFTSDVSSYLEGEAVKEFIAWLVEKFKEAF-NH2)
4 h Cholesterol Efflux Emax [1]: 98% | EC50 [2, 4]: 0.372 nM

CC[C@H](C)[C@H](NC(=O)[C@H](Cc1ccccc1)NC(=O)[C@H](CCC(=O)O)NC(=O)[C@H](CCCCN)NC(=O)[C@@H](NC(=O)[C@H](C)NC(=O)[C@H](CCC(=O)O)NC(=O)CNC(=O)[C@H](CCC(=O)O)NC(=O)[C@H](CC(C)C)NC(=O)[C@H](Cc1ccc(O)cc1)NC(=O)[C@H](CO)NC(=O)[C@H](CO)NC(=O)[C@@H](NC(=O)[C@H](CC(=O)O)NC(=O)[C@H](CO)NC(=O)[C@@H](NC(=O)[C@H](Cc1ccccc1)NC(=O)[C@@H](NC(=O)CNC(=O)[C@H](CCC(=O)O)NC(=O)C(C)(C)NC(=O)[C@@H](N)Cc1c[nH]cn1)[C@@H](C)O)[C@@H](C)O)C(C)C)C(C)C)C(=O)N[C@@H](CCC(=O)O)C(=O)N[C@@H](Cc1c[nH]c2ccccc12)C(=O)N[C@@H](CC(C)C)C(=O)N[C@H](C(=O)N[C@@H](CCC(=O)O)C(=O)N[C@@H](CCCCN)C(=O)N[C@H](C(=O)N[C@@H](CCCCN)C(=O)N[C@@H](CCC(=O)O)C(=O)N[C@@H](CCCCN)C(=O)N[C@@H](CC(C)C)C(N)=O)C(C)C)C(C)C [Compound 112] (H-H[Aib]EGTFTSDVSSYLEGEAVKEFIEWLVEKVKEKL-NH2)
4 h Cholesterol Efflux Emax [1]: 119% | EC50 [2, 4]: 0.163 nM | EC50 [2, 3]: 0.039 nM

CC[C@H](C)[C@H](NC(=O)[C@H](Cc1ccccc1)NC(=O)[C@H](CCC(=O)O)NC(=O)[C@H](CCCNC(=N)N)NC(=O)[C@@H](NC(=O)[C@H](C)NC(=O)[C@H](CCC(=O)O)NC(=O)[C@H](CCC(=O)O)NC(=O)[C@H](CCC(=O)O)NC(=O)[C@H](CCSC)NC(=O)[C@H](CCC(N)=O)NC(=O)[C@H](CCCCN)NC(=O)[C@H](CO)NC(=O)[C@H](CC(C)C)NC(=O)[C@H](CC(=O)O)NC(=O)[C@H](CO)NC(=O)[C@@H](NC(=O)[C@H](Cc1ccccc1)NC(=O)[C@@H](NC(=O)CNC(=O)[C@H](CCC(=O)O)NC(=O)C(C)(C)NC(=O)[C@@H](N)Cc1c[nH]cn1)[C@@H](C)O)[C@@H](C)O)C(C)C)C(=O)N[C@@H](CCC(=O)O)C(=O)N[C@@H](Cc1c[nH]c2ccccc12)C(=O)N[C@@H](CC(C)C)C(=O)N[C@@H](CCCCN)C(=O)N[C@@H](CC(N)=O)C(=O)N[C@@H](CCCCN)C(=O)NC(C)(C)C(=O)N1CCC[C@H]1C(=O)N[C@@H](CCC(=O)O)C(=O)N[C@@H](Cc1ccccc1)C(=O)N[C@@H](CC(C)C)C(=O)N[C@@H](CCC(=O)O)C(=O)N[C@@H](CC(C)C)C(=O)N[C@@H](CC(C)C)C(N)=O [Compound 35, [Aib2,Glu21,Lys29,Aib30,Glu32,Phe33,Leu34,Glu35,Leu36,Leu371-Exendin-4-(1-37)-peptide amide] (H-H[Aib]EGTFTSDLSKQMEEEAVREFIEWLKNK[Aib]PEFLELL-NH2; N-terminus assumed)
4 h Cholesterol Efflux Emax [1]: 48% | EC50 [2, 3]: 0.032 nM

CC[C@H](C)[C@H](NC(=O)[C@H](Cc1ccccc1)NC(=O)[C@H](CCC(=O)O)NC(=O)[C@H](CCCCN)NC(=O)[C@@H](NC(=O)[C@H](C)NC(=O)[C@H](CCC(=O)O)NC(=O)CNC(=O)[C@H](CCC(=O)O)NC(=O)[C@H](CC(C)C)NC(=O)[C@H](Cc1ccc(O)cc1)NC(=O)[C@H](CO)NC(=O)[C@H](CO)NC(=O)[C@@H](NC(=O)[C@H](CC(=O)O)NC(=O)[C@H](CO)NC(=O)[C@@H](NC(=O)[C@H](Cc1ccccc1)NC(=O)[C@@H](NC(=O)CNC(=O)[C@H](CCC(=O)O)NC(=O)C(C)(C)NC(=O)[C@@H](N)Cc1c[nH]cn1)[C@@H](C)O)[C@@H](C)O)C(C)C)C(C)C)C(=O)N[C@@H](C)C(=O)N[C@@H](Cc1c[nH]c2ccccc12)C(=O)N[C@@H](CC(C)C)C(=O)N[C@@H](CC(C)C)C(=O)N[C@@H](CCC(=O)O)C(=O)N[C@@H](CCCCN)C(=O)NC(C)(C)C(=O)N[C@@H](CCCCN)C(=O)N[C@@H](CCC(=O)O)C(=O)N[C@@H](Cc1ccccc1)C(=O)N[C@@H](CC(C)C)C(N)=O [Compound 84, [Aib8,Glu23,Val25,Leu33,Glu34,Lys35,Aib36,Lys37]-GLP-1-(7-37)-peptidyl-Glu-Phe-Leu amide] (H-H[Aib]EGTFTSDVSSYLEGEAVKEFIAWLLEK[Aib]KEFL-NH2)
4 h Cholesterol Efflux Emax [1]: 94% | EC50 [2, 3]: 0.076 nM

H-HAEGTFTSDVSSYLEGEAVREFIAWLVERVREFLEK-OH [Compound 138]
4 h Cholesterol Efflux Emax [1]: 96% | EC50 [2, 4]: 0.041 nM | EC50 [2, 3]: 0.017 nM

H-HGEGTFTSDVSSYLEEEAVKEFIAWLVEKVKEKL-NH2 [Compound 111, [Gly8,Glu22,Glu23,Val25,Glu34,Lys35,Val36,Lys37]-GLP-1-(7-37)-peptidyl-Glu-Lys-Leu amide]
4 h Cholesterol Efflux Emax [1]: 117% | EC50 [2, 3]: 0.076 nM

CC[C@H](C)[C@H](NC(=O)[C@H](Cc1ccccc1)NC(=O)[C@H](CCC(=O)O)NC(=O)[C@H](CCCCN)NC(=O)[C@H](C)NC(=O)[C@H](C)NC(=O)[C@H](CCC(=O)O)NC(=O)[C@H](CCC(=O)O)NC(=O)[C@H](CCC(=O)O)NC(=O)[C@H](CC(C)C)NC(=O)[C@H](Cc1ccc(O)cc1)NC(=O)[C@H](CCCCN)NC(=O)[C@H](CO)NC(=O)[C@H](Cc1ccc(O)cc1)NC(=O)[C@H](CC(=O)O)NC(=O)[C@H](CO)NC(=O)[C@@H](NC(=O)[C@H](Cc1ccccc1)NC(=O)[C@@H](NC(=O)CNC(=O)[C@H](Cc1c[nH]cn1)NC(=O)C(C)(C)NC(=O)[C@@H](N)Cc1c[nH]cn1)[C@@H](C)O)[C@@H](C)O)C(=O)N[C@@H](C)C(=O)N[C@@H](Cc1c[nH]c2ccccc12)C(=O)N[C@@H](CC(C)C)C(=O)N[C@@H](CC(C)C)C(=O)N[C@@H](CCC(=O)O)C(=O)N[C@@H](CCCCN)C(=O)NC(C)(C)C(=O)N[C@@H](CCCCN)C(=O)N[C@@H](CCC(=O)O)C(=O)N[C@@H](Cc1ccccc1)C(=O)N[C@@H](CC(C)C)C(N)=O [Compound 55] (H-H[Aib]HGTFTSDYSKYLEEEAAKEFIAWLLEK[Aib]KEFL-NH2)
4 h Cholesterol Efflux Emax [1]: 96% | EC50 [2, 4]: 0.08 nM | EC50 [2, 3]: 0.049 nM

CC[C@H](C)[C@H](NC(=O)[C@H](Cc1ccccc1)NC(=O)[C@H](CCC(=O)O)NC(=O)[C@H](CCC(N)=O)NC(=O)[C@@H](NC(=O)[C@H](C)NC(=O)[C@H](CCC(=O)O)NC(=O)CNC(=O)[C@H](CCC(=O)O)NC(=O)[C@H](CC(C)C)NC(=O)[C@H](Cc1ccc(O)cc1)NC(=O)[C@H](CO)NC(=O)[C@H](CO)NC(=O)[C@@H](NC(=O)[C@H](CC(=O)O)NC(=O)[C@H](CO)NC(=O)[C@@H](NC(=O)[C@H](Cc1ccccc1)NC(=O)[C@@H](NC(=O)CNC(=O)[C@H](CCC(=O)O)NC(=O)C(C)(C)NC(=O)[C@@H](N)Cc1c[nH]cn1)[C@@H](C)O)[C@@H](C)O)C(C)C)C(C)C)C(=O)N[C@@H](C)C(=O)N[C@@H](Cc1c[nH]c2ccccc12)C(=O)N[C@@H](CC(C)C)C(=O)N[C@H](C(=O)N[C@@H](CCC(=O)O)C(=O)N[C@@H](CCC(N)=O)C(=O)NC(C)(C)C(=O)N[C@@H](CCC(N)=O)C(=O)N[C@@H](CCC(=O)O)C(=O)N[C@@H](Cc1ccccc1)C(=O)N[C@@H](CC(C)C)C(N)=O)C(C)C [Compound 95] (H-H[Aib]EGTFTSDVSSYLEGEAVQEFIAWLVEQ[Aib]QEFL-NH2)
4 h Cholesterol Efflux Emax [1]: 59% | EC50 [2, 3]: 0.04 nM
